Literature values in US5268308A, “Immunoassay for pyridostigmine” (priority 1989, dated 1993).

Experiments:
central nervous system = settings: moderate doses; cited from earlier work
[1] = biological solutions, particularly plasma and blood; cited from earlier work

## CN(C)C(=O)Oc1ccc[n+](C)c1 [Pyridostigmine]
Central nervous system
  effect on the central nervous system: usually do not effect the central nervous system
[1]
  in vitro hydrolysis: extensive in vitro hydrolysis
